According to ChEMBL document CHEMBL1268939, “Synthesis and evaluation of bivalent, peptidomimetic antagonists of the αvβ3 integrins” (Bioorg Med Chem Lett, 2010):

Biological target: Integrin alpha-V/beta-3 (Homo sapiens, UniProt P05106+P06756)
Assay: Inhibition of biotinylated vitronectin binding to human alphaVbeta3 integrin after 3 hrs by ELISA
Format: protein-complex assay

Chain of Integrin alpha-V/beta-3 (P05106 27-788 limits assumed): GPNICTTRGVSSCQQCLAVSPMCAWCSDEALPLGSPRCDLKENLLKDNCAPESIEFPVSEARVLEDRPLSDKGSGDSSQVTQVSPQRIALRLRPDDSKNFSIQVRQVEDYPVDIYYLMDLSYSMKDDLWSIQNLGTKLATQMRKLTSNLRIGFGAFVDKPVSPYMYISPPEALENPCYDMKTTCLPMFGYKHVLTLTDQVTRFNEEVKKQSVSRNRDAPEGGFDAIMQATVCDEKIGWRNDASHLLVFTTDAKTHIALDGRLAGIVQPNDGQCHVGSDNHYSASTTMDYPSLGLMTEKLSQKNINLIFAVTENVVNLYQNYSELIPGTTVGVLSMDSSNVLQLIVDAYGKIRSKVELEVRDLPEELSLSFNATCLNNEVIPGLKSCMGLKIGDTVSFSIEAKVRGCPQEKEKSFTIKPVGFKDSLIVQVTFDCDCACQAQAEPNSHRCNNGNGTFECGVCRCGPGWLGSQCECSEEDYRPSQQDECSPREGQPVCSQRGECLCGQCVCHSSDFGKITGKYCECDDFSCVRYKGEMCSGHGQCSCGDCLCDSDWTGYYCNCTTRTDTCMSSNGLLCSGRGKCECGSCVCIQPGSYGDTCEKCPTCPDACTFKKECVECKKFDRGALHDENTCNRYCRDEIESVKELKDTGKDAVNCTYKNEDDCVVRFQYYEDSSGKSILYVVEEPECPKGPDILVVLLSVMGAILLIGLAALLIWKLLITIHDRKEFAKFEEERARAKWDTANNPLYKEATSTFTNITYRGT
Chain of Integrin alpha-V/beta-3 (P06756 31-889 limits assumed): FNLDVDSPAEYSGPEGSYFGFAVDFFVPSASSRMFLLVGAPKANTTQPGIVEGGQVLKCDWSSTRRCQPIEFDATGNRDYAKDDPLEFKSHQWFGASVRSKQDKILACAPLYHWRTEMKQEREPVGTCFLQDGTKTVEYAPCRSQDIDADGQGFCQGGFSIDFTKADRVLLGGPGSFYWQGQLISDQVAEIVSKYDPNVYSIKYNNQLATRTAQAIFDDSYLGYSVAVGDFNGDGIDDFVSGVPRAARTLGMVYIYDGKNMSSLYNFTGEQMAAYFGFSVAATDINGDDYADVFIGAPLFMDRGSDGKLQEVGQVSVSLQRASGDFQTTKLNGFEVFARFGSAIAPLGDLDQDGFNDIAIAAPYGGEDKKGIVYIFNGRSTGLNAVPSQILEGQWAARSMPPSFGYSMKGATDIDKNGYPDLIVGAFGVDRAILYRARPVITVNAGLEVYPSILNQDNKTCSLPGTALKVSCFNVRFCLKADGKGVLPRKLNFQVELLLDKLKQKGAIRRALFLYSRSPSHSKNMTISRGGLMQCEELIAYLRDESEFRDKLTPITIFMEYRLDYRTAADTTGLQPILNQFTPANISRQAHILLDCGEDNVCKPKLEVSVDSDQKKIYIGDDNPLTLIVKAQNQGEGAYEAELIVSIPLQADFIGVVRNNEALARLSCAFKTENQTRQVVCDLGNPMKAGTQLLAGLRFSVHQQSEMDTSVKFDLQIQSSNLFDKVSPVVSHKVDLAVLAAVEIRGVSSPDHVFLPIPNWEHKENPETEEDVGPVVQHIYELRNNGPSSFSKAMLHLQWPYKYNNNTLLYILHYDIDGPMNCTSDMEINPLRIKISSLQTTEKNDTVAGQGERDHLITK
Chain of Integrin alpha-V/beta-3 (P06756 891-1048 limits assumed): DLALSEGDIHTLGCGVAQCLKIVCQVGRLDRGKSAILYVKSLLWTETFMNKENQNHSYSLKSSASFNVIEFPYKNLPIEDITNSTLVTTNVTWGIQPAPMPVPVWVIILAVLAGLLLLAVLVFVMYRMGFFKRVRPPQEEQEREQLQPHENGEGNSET

Row | SMILES | IC50 [nM]
1 | CC(C)(CN)COC(=O)NCCS(=O)(=O)N[C@@H](CNC(=O)c1ccc(OCCNC2=NCCCN2)cc1)C(=O)O | 2.07
2 | CC(C)(CNC(=O)OCCOCCOCCOCCOCCOCCOCCOCCOC(=O)NCC(C)(C)COC(=O)NCCS(=O)(=O)N[C@@H](CNC(=O)c1ccc(OCCN=C2NCCCN2)cc1)C(=O)O)COC(=O)NCCS(=O)(=O)N[C@@H](CNC(=O)c1ccc(OCCN=C2NCCCN2)cc1)C(=O)O | 0.32
3 | NCCS(=O)(=O)N[C@@H](CNC(=O)c1ccc(OCCNC2=NCCCN2)cc1)C(=O)O | 22.3
